Reference: the kinase profiling compilation of Christmann-Franck et al. (2016)

Key:
Experiment in all cases: KINOMEscan competition binding
Settings in all cases: compound 10.0 µM
BMPR2 (human) = BMPR2 (human) (UniProt Q13873)
BTK (human) = BTK (human) (UniProt Q06187)
CAMK1D (human) = CAMK1D (human) (UniProt Q8IU85)
CAMK2G (human) = CAMK2G (human) (UniProt Q13555)
CAMKK2 (human) = CAMKK2 (human) (UniProt Q96RR4)
CDK14 (human) = CDK14 (human) (UniProt O94921)
CDK2 (human) = CDK2 (human) (UniProt P24941)
CDK3 (human) = CDK3 (human) (UniProt Q00526)
CDK3 (human), sequence (Q00526 whole entry, looked up): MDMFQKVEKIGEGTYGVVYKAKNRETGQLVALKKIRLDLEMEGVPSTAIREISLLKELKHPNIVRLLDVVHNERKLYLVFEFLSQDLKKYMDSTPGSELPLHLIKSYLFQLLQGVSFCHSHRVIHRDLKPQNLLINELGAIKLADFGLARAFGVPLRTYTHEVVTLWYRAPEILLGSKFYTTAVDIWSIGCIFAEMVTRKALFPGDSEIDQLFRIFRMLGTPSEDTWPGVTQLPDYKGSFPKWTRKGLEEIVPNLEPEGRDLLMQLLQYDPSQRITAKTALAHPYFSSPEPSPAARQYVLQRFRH

CDK7 (human) = CDK7 (human) (UniProt P50613)
CLK1 (human) = CLK1 (human) (UniProt P49759)
CLK2 (human) = CLK2 (human) (UniProt P49760)
CLK3 (human) = CLK3 (human) (UniProt P49761)
CLK3 (human), sequence (P49761 whole entry, looked up): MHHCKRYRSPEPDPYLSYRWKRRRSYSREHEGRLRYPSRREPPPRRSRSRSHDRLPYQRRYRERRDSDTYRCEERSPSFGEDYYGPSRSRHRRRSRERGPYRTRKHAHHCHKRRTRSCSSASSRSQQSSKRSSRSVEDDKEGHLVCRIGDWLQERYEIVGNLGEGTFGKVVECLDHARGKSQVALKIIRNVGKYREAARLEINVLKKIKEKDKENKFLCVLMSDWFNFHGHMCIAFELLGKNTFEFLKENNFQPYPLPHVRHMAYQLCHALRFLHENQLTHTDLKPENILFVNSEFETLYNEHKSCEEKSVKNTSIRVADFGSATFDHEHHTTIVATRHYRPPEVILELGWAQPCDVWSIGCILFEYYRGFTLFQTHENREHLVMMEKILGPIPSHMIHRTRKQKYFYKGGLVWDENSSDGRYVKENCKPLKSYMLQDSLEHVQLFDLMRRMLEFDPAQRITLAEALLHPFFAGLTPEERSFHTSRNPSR

CRK2 (P.falciparum) = CRK2 (P.falciparum) (UniProt P61075)
CRK2 (P.falciparum), sequence (P61075 whole entry, looked up): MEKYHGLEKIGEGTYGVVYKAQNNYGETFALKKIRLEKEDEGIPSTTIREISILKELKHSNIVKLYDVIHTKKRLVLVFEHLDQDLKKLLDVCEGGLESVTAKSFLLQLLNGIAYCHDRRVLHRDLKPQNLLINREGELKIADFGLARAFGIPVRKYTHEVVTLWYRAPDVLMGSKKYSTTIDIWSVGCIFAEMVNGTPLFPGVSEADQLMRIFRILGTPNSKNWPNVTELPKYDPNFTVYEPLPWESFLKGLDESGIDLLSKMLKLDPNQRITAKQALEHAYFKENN

CSNK1G2 (human) = CSNK1G2 (human) (UniProt P78368)
DCLK2 (human) = DCLK2 (human) (UniProt Q8N568)
EPHB6 (human) = EPHB6 (human) (UniProt O15197)
[1] = test system: FLT3 (human), P36888 [R834Q]
FRK (human) = FRK (human) (UniProt P42685)
FYN (human) = FYN (human) (UniProt P06241)
HUNK (human) = HUNK (human) (UniProt P57058)
HUNK (human), sequence (P57058 whole entry, looked up): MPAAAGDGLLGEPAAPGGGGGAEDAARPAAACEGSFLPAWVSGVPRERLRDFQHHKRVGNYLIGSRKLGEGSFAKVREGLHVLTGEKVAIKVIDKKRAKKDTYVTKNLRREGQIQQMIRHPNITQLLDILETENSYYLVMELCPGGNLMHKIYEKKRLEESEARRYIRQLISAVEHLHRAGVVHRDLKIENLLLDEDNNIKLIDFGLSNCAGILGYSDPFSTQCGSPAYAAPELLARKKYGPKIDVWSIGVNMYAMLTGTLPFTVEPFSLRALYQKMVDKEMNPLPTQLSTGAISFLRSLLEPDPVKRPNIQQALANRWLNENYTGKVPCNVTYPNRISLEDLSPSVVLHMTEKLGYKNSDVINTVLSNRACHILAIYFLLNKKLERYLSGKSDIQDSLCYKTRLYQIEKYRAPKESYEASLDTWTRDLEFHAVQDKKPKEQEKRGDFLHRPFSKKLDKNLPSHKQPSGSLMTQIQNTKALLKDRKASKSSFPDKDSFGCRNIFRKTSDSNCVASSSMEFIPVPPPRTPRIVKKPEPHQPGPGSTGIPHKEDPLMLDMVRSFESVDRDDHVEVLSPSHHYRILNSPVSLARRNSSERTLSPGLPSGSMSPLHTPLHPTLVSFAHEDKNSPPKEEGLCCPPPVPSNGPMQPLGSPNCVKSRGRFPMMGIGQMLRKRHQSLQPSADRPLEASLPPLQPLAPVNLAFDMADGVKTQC

ITK (human) = ITK (human) (UniProt Q08881)
ITK (human), sequence (Q08881 whole entry, looked up): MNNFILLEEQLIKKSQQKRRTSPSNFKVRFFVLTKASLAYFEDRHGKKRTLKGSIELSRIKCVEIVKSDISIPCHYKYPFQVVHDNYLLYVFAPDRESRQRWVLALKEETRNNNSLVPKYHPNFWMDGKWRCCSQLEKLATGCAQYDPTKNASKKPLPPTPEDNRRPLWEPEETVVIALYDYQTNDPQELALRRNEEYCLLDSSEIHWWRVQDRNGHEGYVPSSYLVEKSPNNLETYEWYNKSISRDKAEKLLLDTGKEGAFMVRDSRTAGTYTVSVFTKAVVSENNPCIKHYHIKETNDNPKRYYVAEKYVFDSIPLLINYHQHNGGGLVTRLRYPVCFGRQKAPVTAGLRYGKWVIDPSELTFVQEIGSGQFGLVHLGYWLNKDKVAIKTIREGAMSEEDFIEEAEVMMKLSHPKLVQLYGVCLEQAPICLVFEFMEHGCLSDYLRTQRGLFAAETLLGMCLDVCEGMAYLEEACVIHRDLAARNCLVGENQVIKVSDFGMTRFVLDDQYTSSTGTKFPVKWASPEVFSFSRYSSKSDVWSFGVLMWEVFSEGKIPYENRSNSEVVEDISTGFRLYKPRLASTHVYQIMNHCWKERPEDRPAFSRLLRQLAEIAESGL

[2] = molecular target: JAK3 JH1 catalytic (human) (UniProt P52333)
JAK3 JH1 catalytic (human), sequence (P52333 whole entry, looked up): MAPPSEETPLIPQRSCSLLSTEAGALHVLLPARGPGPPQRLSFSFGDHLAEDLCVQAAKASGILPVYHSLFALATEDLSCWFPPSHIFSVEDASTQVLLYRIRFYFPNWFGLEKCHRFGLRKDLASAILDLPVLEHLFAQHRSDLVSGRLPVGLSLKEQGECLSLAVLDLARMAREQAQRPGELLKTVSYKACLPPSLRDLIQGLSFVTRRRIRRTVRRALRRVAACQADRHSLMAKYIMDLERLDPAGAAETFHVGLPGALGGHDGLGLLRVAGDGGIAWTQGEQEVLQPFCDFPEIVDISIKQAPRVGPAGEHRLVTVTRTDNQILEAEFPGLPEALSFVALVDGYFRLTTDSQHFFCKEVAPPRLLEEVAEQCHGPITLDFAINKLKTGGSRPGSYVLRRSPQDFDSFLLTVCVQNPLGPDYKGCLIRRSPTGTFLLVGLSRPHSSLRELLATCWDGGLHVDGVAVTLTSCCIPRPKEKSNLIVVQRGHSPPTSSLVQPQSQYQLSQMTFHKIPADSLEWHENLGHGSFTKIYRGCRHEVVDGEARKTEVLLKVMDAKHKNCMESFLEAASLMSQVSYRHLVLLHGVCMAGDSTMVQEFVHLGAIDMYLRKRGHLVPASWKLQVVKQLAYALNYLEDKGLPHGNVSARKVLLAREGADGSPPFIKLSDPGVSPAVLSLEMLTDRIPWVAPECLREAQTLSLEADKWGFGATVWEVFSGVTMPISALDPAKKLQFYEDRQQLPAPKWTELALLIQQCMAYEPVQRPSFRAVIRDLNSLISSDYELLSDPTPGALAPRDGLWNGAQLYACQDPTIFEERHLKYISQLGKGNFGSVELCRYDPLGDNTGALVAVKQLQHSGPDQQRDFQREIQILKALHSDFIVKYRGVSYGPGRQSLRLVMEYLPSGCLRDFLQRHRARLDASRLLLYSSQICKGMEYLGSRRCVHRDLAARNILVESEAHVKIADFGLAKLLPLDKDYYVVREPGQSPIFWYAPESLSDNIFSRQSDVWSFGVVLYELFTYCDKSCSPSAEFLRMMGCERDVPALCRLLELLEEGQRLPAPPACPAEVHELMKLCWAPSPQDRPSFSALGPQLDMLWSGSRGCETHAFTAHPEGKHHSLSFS

[3] = test system: KIT (human), P10721 [V559D]
LCK (human) = LCK (human) (UniProt P06239)
MAP2K3 (human) = MAP2K3 (human) (UniProt P46734)
MAP3K12 (human) = MAP3K12 (human) (UniProt Q12852)
MAP3K4 (human) = MAP3K4 (human) (UniProt Q9Y6R4)
MAPK3 (human) = MAPK3 (human) (UniProt P27361)
MAPK3 (human), sequence (P27361 whole entry, looked up): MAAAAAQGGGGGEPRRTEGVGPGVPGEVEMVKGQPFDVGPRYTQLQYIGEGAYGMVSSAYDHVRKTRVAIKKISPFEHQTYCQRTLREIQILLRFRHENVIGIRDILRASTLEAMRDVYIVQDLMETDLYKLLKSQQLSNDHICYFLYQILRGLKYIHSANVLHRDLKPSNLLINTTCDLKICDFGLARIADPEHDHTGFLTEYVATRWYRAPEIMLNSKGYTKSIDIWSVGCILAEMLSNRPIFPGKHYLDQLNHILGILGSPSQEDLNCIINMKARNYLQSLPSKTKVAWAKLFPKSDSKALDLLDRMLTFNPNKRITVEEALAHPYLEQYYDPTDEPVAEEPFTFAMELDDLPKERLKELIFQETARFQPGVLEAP

MLTK (human) = MLTK (human) (UniProt Q9NYL2)
MUSK (human) = MUSK (human) (UniProt O15146)
NEK4 (human) = NEK4 (human) (UniProt P51957)
PAK1 (human) = PAK1 (human) (UniProt Q13153)
[4] = test system: PIK3CA (human), P42336 [H1047L]
PRKAA2 (human) = PRKAA2 (human) (UniProt P54646)
RAF1 (human) = RAF1 (human) (UniProt P04049)
RET (human) = RET (human) (UniProt P07949)
RET (human), sequence (P07949 whole entry, looked up): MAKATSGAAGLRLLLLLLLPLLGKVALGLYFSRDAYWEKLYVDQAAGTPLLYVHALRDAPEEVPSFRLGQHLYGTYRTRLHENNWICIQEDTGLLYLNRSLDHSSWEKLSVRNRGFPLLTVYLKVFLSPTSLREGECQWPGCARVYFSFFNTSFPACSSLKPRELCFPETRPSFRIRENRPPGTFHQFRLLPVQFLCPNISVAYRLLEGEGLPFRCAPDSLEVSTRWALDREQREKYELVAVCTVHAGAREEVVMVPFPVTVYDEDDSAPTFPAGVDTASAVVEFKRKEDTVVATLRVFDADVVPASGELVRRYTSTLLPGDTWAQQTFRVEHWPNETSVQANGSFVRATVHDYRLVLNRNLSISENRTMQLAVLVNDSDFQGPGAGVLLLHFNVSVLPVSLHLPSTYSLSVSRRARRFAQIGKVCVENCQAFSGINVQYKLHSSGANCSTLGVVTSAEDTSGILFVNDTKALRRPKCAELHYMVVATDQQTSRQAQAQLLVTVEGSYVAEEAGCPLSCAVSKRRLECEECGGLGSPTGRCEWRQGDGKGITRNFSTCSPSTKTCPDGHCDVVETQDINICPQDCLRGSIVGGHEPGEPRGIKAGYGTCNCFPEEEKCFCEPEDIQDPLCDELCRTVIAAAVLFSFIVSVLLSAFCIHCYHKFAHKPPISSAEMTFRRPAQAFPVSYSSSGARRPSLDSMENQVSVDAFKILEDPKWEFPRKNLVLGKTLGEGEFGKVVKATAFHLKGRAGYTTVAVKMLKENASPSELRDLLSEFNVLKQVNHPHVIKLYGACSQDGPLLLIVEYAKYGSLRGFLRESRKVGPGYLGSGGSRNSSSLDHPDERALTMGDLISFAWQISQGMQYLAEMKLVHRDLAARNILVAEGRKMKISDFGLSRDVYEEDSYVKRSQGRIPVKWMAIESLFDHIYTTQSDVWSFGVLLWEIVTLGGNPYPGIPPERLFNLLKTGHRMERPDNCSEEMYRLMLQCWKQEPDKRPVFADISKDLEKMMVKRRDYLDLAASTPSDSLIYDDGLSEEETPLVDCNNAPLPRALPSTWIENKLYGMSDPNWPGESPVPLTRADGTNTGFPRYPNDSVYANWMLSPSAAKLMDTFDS

RPS6KA6 KD2 (human) = RPS6KA6 KD2 (human) (UniProt Q9UK32)
SGK110 (human) = SGK110 (human) (UniProt P0C264)
SLK (human) = SLK (human) (UniProt Q9H2G2)
SRPK3 (human) = SRPK3 (human) (UniProt Q9UPE1)
TESK1 (human) = TESK1 (human) (UniProt Q15569)
TYRO3 (human) = TYRO3 (human) (UniProt Q06418)
WEE2 (human) = WEE2 (human) (UniProt P0C1S8)

`Cc1ccc(NC(=O)c2ccc(NC(=O)/C=C/CN(C)C)cc2)cc1Nc1nccc(-c2cccnc2)n1` gave a kinase still bound, per cent of control (BMPR2 (human)) of 86%, a kinase still bound, per cent of control (BTK (human)) of 76% and a kinase still bound, per cent of control (CAMK1D (human)) of 85%. For the same molecule, the kinase still bound, per cent of control (CAMK2G (human)) was 95%, the kinase still bound, per cent of control (CAMKK2 (human)) was 56% and the kinase still bound, per cent of control (CDK14 (human)) was 100%. The kinase still bound, per cent of control (CDK2 (human)) was 95%, the kinase still bound, per cent of control (CDK3 (human)) was 100% and the kinase still bound, per cent of control (CDK7 (human)) was 68%. The kinase still bound, per cent of control (CLK1 (human)) was 24%, the kinase still bound, per cent of control (CLK2 (human)) was 100% and the kinase still bound, per cent of control (CLK3 (human)) was 93%. The kinase still bound, per cent of control (CRK2 (P.falciparum)) was 100%, the kinase still bound, per cent of control (CSNK1G2 (human)) was 83% and the kinase still bound, per cent of control (DCLK2 (human)) was 100%. It also gave a kinase still bound, per cent of control (EPHB6 (human)) of 26%, a kinase still bound, per cent of control [1] of 56% and a kinase still bound, per cent of control (FRK (human)) of 86%. The kinase still bound, per cent of control (FYN (human)) was 95%, the kinase still bound, per cent of control (HUNK (human)) was 25% and the kinase still bound, per cent of control (ITK (human)) was 100%. It also gave a kinase still bound, per cent of control [2] of 100%, a kinase still bound, per cent of control [3] of 0% and a kinase still bound, per cent of control (LCK (human)) of 54%. The kinase still bound, per cent of control (MAP2K3 (human)) was 50%, the kinase still bound, per cent of control (MAP3K12 (human)) was 94% and the kinase still bound, per cent of control (MAP3K4 (human)) was 100%. The kinase still bound, per cent of control (MAPK3 (human)) was 100%, the kinase still bound, per cent of control (MLTK (human)) was 78% and the kinase still bound, per cent of control (MUSK (human)) was 99%. For the same molecule, the kinase still bound, per cent of control (NEK4 (human)) was 100%, the kinase still bound, per cent of control (PAK1 (human)) was 89% and the kinase still bound, per cent of control [4] was 89%. It also gave a kinase still bound, per cent of control (PRKAA2 (human)) of 56%, a kinase still bound, per cent of control (RAF1 (human)) of 55% and a kinase still bound, per cent of control (RET (human)) of 99%. For the same molecule, the kinase still bound, per cent of control (RPS6KA6 KD2 (human)) was 67%, the kinase still bound, per cent of control (SGK110 (human)) was 85% and the kinase still bound, per cent of control (SLK (human)) was 100%. For the same molecule, the kinase still bound, per cent of control (SRPK3 (human)) was 76%, the kinase still bound, per cent of control (TESK1 (human)) was 100% and the kinase still bound, per cent of control (TYRO3 (human)) was 100%. The kinase still bound, per cent of control (WEE2 (human)) was 100%.
